Columns and labels:
[1] = tested on: LAD-ligated male C57BI/6 mice (myocardial infarction); test: Cardiac function after coronary artery (LAD) ligation, echocardiography; assay type: in vivo, mouse
Source text: Adult male C57BI/6 mice, 3 months old, were purchased from Jackson Laboratories and acclimated for 3 or more days in standard housing. All mice underwent twice daily intra-gastric administration of physiologic saline for 7 days pre-operatively (acclimation period). They also underwent standard B- and M-mode echocardiographic (ECHO) imaging (VisualSonics Vevo 2100) of the left heart under conscious restraint, 1-5 days prior to surgery.
Under ketamine/xylazine anesthesia, mice were intubated and ventilated, then incised through the left thoracic wall between the 3rd and 4th ribs to expose the heart. For ligation of the left anterior descending coronary artery (LAD), an 8-0 nylon suture was inserted under microscopic view (Wild/Leica operating microscope), placing and tying the ligature at a point 1 mm distal to the point where the artery emerges from the edge of the left atrium. Confirmation was provided by clear blanching of the downstream ventricle wall. Control sham-treated mice underwent needle and 8-0 suture passage under the coronary artery but with suture removal without ligation. The wound was closed with 6-0 suture in two layers (muscle and skin, respectively) and mice were recovered on a warming blanket. They received buprenorphine intraoperatively and twice daily postoperatively for 48 hours, by subcutaneous injection (50 ug/kg body weight).
A total of 48 mice entered the study. Eight mice underwent sham surgery, and these mice received vehicle treatment after surgery. 40 mice underwent LAD ligation, with 20 in each treatment group. Treatment was by oral gavage (intra-gastric administration) at 10 mL/kg body weight, twice daily (7-9 am and 4-6 pm), starting 1-2 hours after surgery and continuing until study termination. Treatment was either with EXAMPLE 22 at a concentration of 3 mg/mL (30 mg/kg) or vehicle for the test agent.
Echocardiography was done under brief, conscious restraint using a VisualSonics Vevo 2100 ultrasound machine, pre-operatively and at 2 and 4 weeks postoperatively. Standard B-mode and M-mode ultrasound imaging was captured at each imaging session. Echocardiographic images were analyzed for left ventricular function, measuring the interventricular septal thickness, internal ventricular cavity dimension, and posterior wall thickness at both diastole and systole from M-mode images at the level of the papillary muscles. The left ventricle ejection fraction and fractional shortening were calculated from these values:
Ejection Fraction (%)=100×[LVIDd^3−LVIDs^3]/LVIDd^3Fractional Shortening (%)=100×[LVIDd−LVIDs]/LVIDd, • where LVID=left ventricle inner diameter (internal ventricular cavity dimension), d=diastole, s=systole
After the 4-week ECHO imaging, mice were anesthetized and a terminal blood draw was taken from the abdominal aorta into 3.8% citrate (9:1), and the plasma was obtained by centrifugation and frozen. Mice were then euthanized (anesthesia overdose followed by cervical dislocation) and the hearts were weighed and the area of infarction was visually measured with t ruler for cranial-caudal and for lateral axes lengths of the approximately oval infarction zone (ligated hearts only). The hearts, and both kidneys, were then immersion-fixed in neutral-buffered formalin for subsequent histopathological evaluation. Plasma, kidney, and heart specimens were returned to Study Sponsor for further evaluation. The time between the last drug dosing and the blood draw was recorded, for future dose-response evaluation by Study Sponsor.
Summary statistics by “treatment” were provided for the change from baseline to week 2 and change from baseline to week 4 where baseline was defined as the pre-echos time-point. For each parameter, the mean “treatment” difference between “Example 22” and “Vehicle” was analyzed using a 2-sample t-test. The analysis was conducted using SAS Version 9.4 via PROC TTEST under unequal variances for the “treatments” using the Satterthwaite method. […]

[2] = in vitro; details: rat, pH 7.4
[3] = tested on: Salmonella typhimurium (TA98, TA100, TA1535 and TA1537)
[4] = Ex 22 vs Vehicle, LAD-ligated mice, 30 mg/kg p.o. twice daily
[5] = LAD-ligated mice, 30 mg/kg p.o. twice daily

**Q.** What does the source list for `O=C(O)C[C@H](CCN1CCCC(F)(F)C1)NC(=O)c1cc(-c2ccccc2C(F)(F)F)n(-c2nccs2)n1` [Example 22, (3S)-5-(3,3-difluoropiperidin-1-yl)-3-{[1-(1,3-thiazol-2-yl)-5-[2-(trifluoromethyl)phenyl]-1H-pyrazol-3-yl]formamido}pentanoic acid]?
**A.** deaths in ligated group ([1]; 30 mg/kg p.o. twice daily, deaths between 3 and 11 days postoperatively, vehicle 7/20): 2/20; ejection fraction ([1]; 4 weeks post-treatment): Statistically significant improvement; EF, Change from baseline, Week 2, Difference [1, 4]: 4.81%; EF, Change from baseline, Week 4, Difference [1, 4]: 10.70%; FS, Change from baseline, Week 2, Difference [1, 4]: 4.21%; FS, Change from baseline, Week 4, Difference [1, 4]: 7.17%; Heart Rate, Change from baseline, Week 2, Difference [1, 4]: 11.43; Heart Rate, Change from baseline, Week 4, Difference [1, 4]: −6.42; IVS d, Change from baseline, Week 2, Difference [1, 4]: 0.40; IVS d, Change from baseline, Week 4, Difference [1, 4]: 0.49; IVS s, Change from baseline, Week 2, Difference [1, 4]: 0.47; IVS s, Change from baseline, Week 4, Difference [1, 4]: 0.56; LV Mass corrected, Change from baseline, Week 2, Difference [1, 4]: 18.64; LV Mass corrected, Change from baseline, Week 4, Difference [1, 4]: 7.38; LV Mass, Change from baseline, Week 2, Difference [1, 4]: 23.30; LV Mass, Change from baseline, Week 4, Difference [1, 4]: 9.23; LV VoI d, Change from baseline, Week 2, Difference [1, 4]: −5.56; LV VoI d, Change from baseline, Week 4, Difference [1, 4]: −29.03; LV VoI s, Change from baseline, Week 2, Difference [1, 4]: −1.67; LV VoI s, Change from baseline, Week 4, Difference [1, 4]: −22.79; LVID d, Change from baseline, Week 2, Difference [1, 4]: −0.23; LVID d, Change from baseline, Week 4, Difference [1, 4]: −0.70; LVID s, Change from baseline 2, Week 2, Difference [1, 4]: −0.22; LVID s, Change from baseline, Week 4, Difference [1, 4]: −0.74; LVPW d, Change from baseline, Week 2, Difference [1, 4]: 0.03; LVPW d, Change from baseline, Week 4, Difference [1, 4]: 0.20; LVPW s, Change from baseline, Week 2, Difference [1, 4]: 0.09; LVPW s, Change from baseline, Week 4, Difference [1, 4]: 0.38; Weight, Change from baseline, Week 2, Difference [1, 4]: 0.21; Weight, Change from baseline, Week 4, Difference [1, 4]: 0.26; EF, Change from baseline, Week 2, Mean [1, 5]: −34.17%; EF, Change from baseline, Week 2, Median [1, 5]: −36.15%; EF, Change from baseline, Week 4, Mean [1, 5]: −38.46%; EF, Change from baseline, Week 4, Median [1, 5]: −37.79%; FS, Change from baseline, Week 2, Mean [1, 5]: −25.71%; FS, Change from baseline, Week 2, Median [1, 5]: −27.07%; FS, Change from baseline, Week 4, Mean [1, 5]: −28.24%; FS, Change from baseline, Week 4, Median [1, 5]: −28.24%; Heart Rate, Change from baseline, Week 2, Mean [1, 5]: 20.04; Heart Rate, Change from baseline, Week 2, Median [1, 5]: 40.66; Heart Rate, Change from baseline, Week 4, Mean [1, 5]: 4.65; Heart Rate, Change from baseline, Week 4, Median [1, 5]: 11.40; IVS d, Change from baseline, Week 2, Mean [1, 5]: −0.03; IVS d, Change from baseline, Week 2, Median [1, 5]: 0.02; IVS d, Change from baseline, Week 4, Mean [1, 5]: 0.10; IVS d, Change from baseline, Week 4, Median [1, 5]: 0.12; IVS s, Change from baseline, Week 2, Mean [1, 5]: −0.17; IVS s, Change from baseline, Week 2, Median [1, 5]: −0.24; IVS s, Change from baseline, Week 4, Mean [1, 5]: −0.02; IVS s, Change from baseline, Week 4, Median [1, 5]: 0.11; LV Mass corrected, Change from baseline, Week 2, Mean [1, 5]: 54.81; LV Mass corrected, Change from baseline, Week 2, Median [1, 5]: 63.28; LV Mass corrected, Change from baseline, Week 4, Mean [1, 5]: 66.14; LV Mass corrected, Change from baseline, Week 4, Median [1, 5]: 66.57; LV Mass, Change from baseline, Week 2, Mean [1, 5]: 68.51; LV Mass, Change from baseline, Week 2, Median [1, 5]: 79.11; LV Mass, Change from baseline, Week 4, Mean [1, 5]: 82.67; LV Mass, Change from baseline, Week 4, Median [1, 5]: 83.21; LV VoI d, Change from baseline, Week 2, Mean [1, 5]: 39.76; LV VoI d, Change from baseline, Week 2, Median [1, 5]: 38.79; LV VoI d, Change from baseline, Week 4, Mean [1, 5]: 53.15; LV VoI d, Change from baseline, Week 4, Median [1, 5]: 51.79; LV VoI s, Change from baseline, Week 2, Mean [1, 5]: 33.74; LV VoI s, Change from baseline, Week 2, Median [1, 5]: 33.90; LV VoI s, Change from baseline, Week 4, Mean [1, 5]: 45.96; LV VoI s, Change from baseline, Week 4, Median [1, 5]: 39.02; LVID d, Change from baseline, Week 2, Mean [1, 5]: 1.11; LVID d, Change from baseline, Week 2, Median [1, 5]: 1.09; LVID d, Change from baseline, Week 4, Mean [1, 5]: 1.36; LVID d, Change from baseline, Week 4, Median [1, 5]: 1.45; LVID s, Change from baseline 2, Week 2, Mean [1, 5]: 1.62; LVID s, Change from baseline 2, Week 2, Median [1, 5]: 1.69; LVID s, Change from baseline, Week 4, Mean [1, 5]: 1.93; LVID s, Change from baseline, Week 4, Median [1, 5]: 1.92; LVPW d, Change from baseline, Week 2, Mean [1, 5]: 0.09; LVPW d, Change from baseline, Week 2, Median [1, 5]: 0.13; LVPW d, Change from baseline, Week 4, Mean [1, 5]: −0.00; LVPW d, Change from baseline, Week 4, Median [1, 5]: 0.00; LVPW s, Change from baseline, Week 2, Mean [1, 5]: −0.29; LVPW s, Change from baseline, Week 2, Median [1, 5]: −0.30; LVPW s, Change from baseline, Week 4, Mean [1, 5]: −0.39; LVPW s, Change from baseline, Week 4, Median [1, 5]: −0.35; Weight, Change from baseline, Week 2, Mean [1, 5]: −0.13; Weight, Change from baseline, Week 2, Median [1, 5]: −0.30; Weight, Change from baseline, Week 4, Mean [1, 5]: 0.89; Weight, Change from baseline, Week 4, Median [1, 5]: 0.70; cardiac function after MI ([1]; compared to vehicle treated animals, 30 mg/kg p.o. twice daily): improved cardiac fraction; recovery at 6 h, 1 μM [2]: 72.7%; Cytotoxicity Code [3]: N; cytotoxicity to tester strains [3]: No cytotoxicity was observed; dose related increase of revertant colonies [3]: No dose related increase; precipitate in Mini-Ames assay [3]: No precipitate was observed

Reference: patent US20240174638A1, “HETEROARYL DERIVATIVES AS APELIN RECEPTOR AGONISTS” (RESEARCH TRIANGLE INSTITUTE, priority 2021, published 2024)
